# Source: patent publication US20220127297A1, “Novel Antibacterial 3"-Derivatives Of 4,6-Disubstituted 2,5-Dideoxystreptamine Aminoglycoside Antibiotics” (AGILeBiotics B.V., priority 2018, published 2022)
# Tested on: A. baumannii DSM 105126
# Experiment: MIC 50, broth micro-dilution, DSM strains
# Type: cell-based, Acinetobacter baumannii
# Conditions: not given
# Text: 3.2 Against Selected Bacteria of the ESKAPE Panel and Enterococcus faecalis (DSM Strains)
# Tested reference compounds. Amikacin sulfate (Cat. No. 01693, Chem-Impex), Gentamicin sulfate (Cat. No. G4918, Sigma Aldrich).
# Microbial strains. Enterococcus faecalis DSM 2570, Klebsiella pneumoniae DSM 26371, Acinetobacter baumannii DSM 105126, Enterobacter cloacae 3MRGN (clinical bronchial aspirate isolate).
# Culture media and equipment. BBL™ Mueller Hinton Broth 2 (Lot. BCBW1143, Cat. No. 70192, Sigma); Trypcase Soy Blood-agar plates (Cat. No. 43001, Biomérieux); Cryoinstant (contains 15% glycerol; Cat. No. 822070ZA, VWR International); GasPak™ EZ Standard Incubation Container (Cat. No. 260671, Becton Dickinson); GasPak™ EZ Campy Container System Sachets (Cat. No. 260680, Becton Dickinson); 96-well deep well plate, 1 mL (Cat. No. 0030506.200, Eppendorf); Plate lid (Cat. No. 0030131.525, Eppendorf); 96-well plate, F-bottom (Cat. No. 260860, Nunc); Incubator (Sartorius Certomat BS-1); Laminar flow (Heraeus HS12); UV/VIS meter (Perkin Elmer Lambda Bio+); Platereader (Tecan Infinite M200 Pro).
# Compound preparation. Compounds were prepared in MH2 media at a concentration of 5 mM and stored at 4° C. For testing, solutions of 128 μM were prepared in MH2, for tests against E. faecalis a solution of 512 μM was prepared. Out of these working solutions, 400 μL was transferred to wells in the first column of 96-well deep well plates. Each compound was transferred in triplicate. Plates were previously filled with 200 μL of MH2 media in all wells except for the wells in the first column. After compound and antibiotic addition, the compounds were serial two-fold diluted by transferring 200 μL from the first to the second column, then from the second to the third column and so on. Finally, 200 μL was removed from the last column.
# Inoculum preparation. Microorganisms used were all revived from 15% glycerol storage in Croinstant tubes at −28° C. by plating them on blood agar plates. A. baumanni, and E. cloacae were grown aerobically at 37° C., E. faecalis was grown microaerophilically at 37° C., and K. pneumoniae was grown aerobically at 37° C. Plates were stored at 4° C. for up to two weeks, after which new plates were prepared from −28° C. A single colony was inoculated in MH2 media and grown at 37° C. and 200 rpm to an optical density (measured by UV/Vis spectroscopy) of 0.6-0.8 at 600 nm. Out of these suspensions, actual inoculums were prepared by diluting them to an optical density of 0.1 in MH2 media. From these inoculums, 200 μL was transferred to each well, resulting in a final compound concentration range of 64 μM-31.3 nM for, K. pneumoniae, A. baumanni, and E. cloacae, and 256 μM-125 nM for E. faecalis. Plates inoculated with E. faecalis were placed inside a GasPak™ Container System with GasPak™ Campy Container System sachets. All plates were incubated at 200 rpm for 18 h under the microorganism culturing conditions mentioned above.
# MIC determination. After 18 h of growth, 200 μL was transferred to a 96-well F-bottom plate. The optical density was determined by a plate reader at 600 nm, with 10 s shaking before reading. Triplicate measurements were averaged, and a growth curve was plotted in Excel. The first column in which the growth reached half the value of maximum growth was determined as the MIC50 value for that particular compound.
# MIC50. The MIC50 of a compound was assigned at which the bacterial growth reached half the value of maximum growth.
row,SMILES,MIC50 [µM]
1,"NCC[C@H](O)C(=O)N[C@@H]1CC(N)[C@@H](O[C@H]2OC(CN)[C@@H](O)CC2N)[C@H](O)C1OC1O[C@H](CO)[C@@H](O)C(N)[C@H]1O (stereo partly drawn) [ABX5004, Tobra-AHB]",0.5
2,"NCCC(O)C(=O)NC1CC(N)C(OC2OC(CN)C(O)C(O)C2N)C(F)C1OC1OC(CO)C(O)C(N)C1O (stereo not drawn) [ABX4007, KanaB-AHB-F]",0.5

# Same assay, conditions: Acinetobacter baumannii, DSM105126, read-out: MIC 50
row,SMILES,MIC50 [µM]
1,"N=C(NCc1ccncc1)NC1[C@@H](O)C(OC2[C@@H](F)[C@H](O[C@H]3OC(CN)[C@@H](O)CC3N)C(N)C[C@H]2NC(=O)[C@@H](O)CCN)O[C@H](CO)[C@H]1O (stereo partly drawn) [ABX5048, Tobra-AHB-F-Gua pyridin-4-yl methyl]",0.5
2,"N=C(N)NC1[C@@H](O)C(OC2[C@@H](F)[C@H](O[C@H]3OC(CN)[C@@H](O)[C@H](O)C3O)C(N)C[C@H]2NC(=O)[C@@H](O)CCN)O[C@H](CO)[C@H]1O (stereo partly drawn) [ABX3003, 3′epi-KanaA-AHB-F-Gua]",0.0625 to 0.125
3,"NCC[C@H](O)C(=O)N[C@@H]1C[C@H](N)[C@@H](O[C@H]2O[C@H](CN)[C@@H](O)[C@H](O)[C@H]2O)[C@H](O)[C@H]1O[C@H]1O[C@H](CO)[C@@H](O)[C@H](N)[C@H]1O [Amikacin, amikacin, reference compound]",0.5
4,"N=C(N)NC1[C@@H](O)C(OC2[C@@H](F)[C@H](O[C@H]3OC(CNCCO)[C@@H](O)CC3N)C(N)C[C@H]2NC(=O)[C@@H](O)CCN)O[C@H](CO)[C@H]1O (stereo partly drawn) [ABX5045, 6N-2-hydroxy-ethyl-Tobra-AHB-F-Gua]",0.5
